Results on three molecules are retold here after article PMC6418270, “The pharmacological and functional characterization of the serotonergic system in Anopheles gambiae and Aedes aegypti: influences on flight and blood-feeding behavior” (Scientific Reports, 2019).

SMILES strings stand for the structures. Where a name gives a salt, the structure may show the parent alone.

One assay has as its system An. gambiae. The note with it: cited from earlier work.
The test system of assay [1] is Ae. aegypti. As to the kind of experiment: Blood-feeding assay (artificial membrane feeder) after microinjection. It counts as in vivo, Aedes aegypti. The note with it: 1 mM microinjected. Here is the method:
(§1) Stock solutions of the compounds were diluted to the appropriate concentrations in 1X phosphate buffer solution (PBS). To account for potential solvent effects, an ultrapure H2O control group was included in every independent experiment. Female mosquitoes were either cold- or CO2-anesthetized. A Nanoject II Auto-Nanoliter Injector (Drummond Scientific Company, Broomall, PA) was then utilized to microinject 69 nL of compound into the spiracle.
Seven to ten-day old female mosquitoes were treated with compound or appropriate control through microinjection post cold-anesthetization or ingestion. Two mL of human O^+ blood (BioChemed Services, Winchester, VA) was utilized to cover the concave surface of an inverted baby food jar. Hog intestine sealed the opening to simulate the puncturing of a host’s skin. The feeding membrane was placed on the top of a mosquito cage, and hot water was poured into the jar to warm the blood. After a 45-minute feed, the mosquitoes were immediately preserved at −20 °C. The blood meal size was determined for each mosquito via hemoglobinometry as previously described.
(§2) Luminescence and calcium assay data were normalized and fitted with a non-linear least squares regression to generate dose-response curves, EC50 and IC50 values. Unpaired t-tests or Dunnett’s multiple comparisons test were performed accordingly to compare EC50 or IC50 values. Locomotion was measured based on the distance required for flight recovery. Data were compared with the Kruskal-Wallis and Dunnett’s multiple comparison tests after the Kolmogorov-Smirnov normality test was conducted. In the blood-feeding experiments, the percentage of blood-fed mosquitoes was calculated for each treatment group. For each biological replicate, the treatment groups were normalized with respect to the untreated group. Dunnett’s multiple comparison tests were utilized to determine statistical difference between normalized data. Size of bloodmeals were compared with an unpaired t-test or Mann-Whitney test after normality was evaluated with the Kolmogorov-Smirnov test. All analyses were performed utilizing GraphPad Prism version 7.00 for Mac OS X, GraphPad Software, La Jolla California USA, www.graphpad.com.

A further assay concerns D. melanogaster. On the set-up: method as in PMID 26989517, PMID 24586928. The note with it: larval and adult; cited from earlier work.
Assay [2] concerns Ae. aegypti. As to the kind of experiment: Flight performance in flight cylinder after microinjection. It counts as in vivo, Aedes aegypti. The note with it: for Distance average in flight cylinder: Fig. 5d; for Average distance dropped before landing on flight cylinder: Fig. 5b. Here is the method:
as §1
A flight cylinder was assembled as described previously. The polyacrylamide sheet was coated with Tangle-Trap Sticky Coating (The Scotts Company LLC, Marysville, OH) and allowed to sit overnight before insertion into the flight cylinder. Adult mosquitoes were anesthetized on a CO2 pad and microinjected with the compound or ultrapure H2O control. Post-injection, they were permitted to recover in a fly vial for 30 minutes before being ejected into the flight cylinder. After each trial, the distance between the top of the cylinder and the trapped mosquito was recorded. Mosquitoes captured in the fly vial at the bottom of the cylinder were considered to be incapable of flying and a distance of 91.5 cm was recorded.
as §2

In a further assay the target is AGAP002229 (Anopheles gambiae, UniProt A7UR33). As to the kind of experiment: Fluo-4 calcium assay in CRE-luc2P HEK-293 cells expressing AGAP002229. It counts as cell-based. Conditions: antagonist test; receptor not given, taken as both 5-HT2 cell lines. The procedure: A week post-transfection, selective pressure was applied with […] of G418 antibiotic to generate stable lines.
Chain of AGAP002229 (A7UR33 entry or part of it): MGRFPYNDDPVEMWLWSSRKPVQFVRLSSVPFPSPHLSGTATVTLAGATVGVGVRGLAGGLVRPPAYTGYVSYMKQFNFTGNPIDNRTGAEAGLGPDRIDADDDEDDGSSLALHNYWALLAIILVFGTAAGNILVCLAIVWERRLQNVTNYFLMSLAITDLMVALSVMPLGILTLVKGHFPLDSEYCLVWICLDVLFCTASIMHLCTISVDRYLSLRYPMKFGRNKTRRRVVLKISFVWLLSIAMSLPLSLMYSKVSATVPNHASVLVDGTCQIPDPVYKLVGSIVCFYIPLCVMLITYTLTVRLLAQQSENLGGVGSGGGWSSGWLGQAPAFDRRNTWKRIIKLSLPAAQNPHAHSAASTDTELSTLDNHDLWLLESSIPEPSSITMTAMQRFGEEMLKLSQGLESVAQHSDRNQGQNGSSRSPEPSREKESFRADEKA
1 × 10^6 cells per well were seeded into a 96-well black all-clear bottom plate and incubated overnight in 10% FBS/90% DMEM at 37 °C with an atmosphere of 5% CO2. The following day, 2X Fluo-4 Direct calcium dye (Molecular Devices LLC, San Jose, CA) was added to each well and incubated in the same conditions for 45 minutes before the assay was completed. At this time, serial dilutions of the test compounds were prepared in a 96-well clear flat bottom plate. […] Fluorescence measurements continued to be recorded for a total of 120 seconds at 2-second intervals. When testing antagonists, cells were treated with the compound prior to determination of fluorescence levels.
as §2

In the next assay the test system is D. melanogaster larvae. Further details: method as in PMID 23817146. Conditions: cited from earlier work.
Assay [3] deals with D1-like dopamine receptors. The note with it: cited from earlier work.
In assay [4] the test system is octopamine receptor (AGAP000045). As to the kind of experiment: Inhibition in HEK-293 cells expressing an octopamine receptor. It counts as cell-based, Anopheles gambiae.
The next assay has as its target AGAP002232 (Anopheles gambiae, UniProt A0A1S4GEY1). As to the kind of experiment: Fluo-4 calcium assay in CRE-luc2P HEK-293 cells expressing AGAP002232. It is filed as cell-based. Here is the method:
The GloResponse™ CRE-luc2P human embryonic kidney (HEK-293) reporter cells were incubated at 37 °C with an atmosphere of 5% CO2, and maintained in Dulbecco’s Modified Eagle Medium (DMEM) supplemented with 10% fetal bovine serum (FBS) and […] hygromycin B. Transfection of the HEK-293 cells with 1 μg of plasmid DNA was performed with Amaxa Nucleofector™ technology (Lonza, Basel, Switzerland) as per manufacturer’s instructions. A week post-transfection, selective pressure was applied with […] of G418 antibiotic to generate stable lines.
1 × 10^6 cells per well were seeded into a 96-well black all-clear bottom plate and incubated overnight in 10% FBS/90% DMEM at 37 °C with an atmosphere of 5% CO2. The following day, 2X Fluo-4 Direct calcium dye (Molecular Devices LLC, San Jose, CA) was added to each well and incubated in the same conditions for 45 minutes before the assay was completed. At this time, serial dilutions of the test compounds were prepared in a 96-well clear flat bottom plate. Fluorescence levels were determined with a FlexStation3 microplate reader, with excitation and emission wavelengths set to 485 and 525 nm, respectively (Molecular Devices LLC). Basal fluorescence levels were measured for 17 seconds, at which time, 25 μl of the agonist compound was added. Fluorescence measurements continued to be recorded for a total of 120 seconds at 2-second intervals. When testing antagonists, cells were treated with the compound prior to determination of fluorescence levels.
as §2

Chain of AGAP002232 (A0A1S4GEY1 entry or part of it): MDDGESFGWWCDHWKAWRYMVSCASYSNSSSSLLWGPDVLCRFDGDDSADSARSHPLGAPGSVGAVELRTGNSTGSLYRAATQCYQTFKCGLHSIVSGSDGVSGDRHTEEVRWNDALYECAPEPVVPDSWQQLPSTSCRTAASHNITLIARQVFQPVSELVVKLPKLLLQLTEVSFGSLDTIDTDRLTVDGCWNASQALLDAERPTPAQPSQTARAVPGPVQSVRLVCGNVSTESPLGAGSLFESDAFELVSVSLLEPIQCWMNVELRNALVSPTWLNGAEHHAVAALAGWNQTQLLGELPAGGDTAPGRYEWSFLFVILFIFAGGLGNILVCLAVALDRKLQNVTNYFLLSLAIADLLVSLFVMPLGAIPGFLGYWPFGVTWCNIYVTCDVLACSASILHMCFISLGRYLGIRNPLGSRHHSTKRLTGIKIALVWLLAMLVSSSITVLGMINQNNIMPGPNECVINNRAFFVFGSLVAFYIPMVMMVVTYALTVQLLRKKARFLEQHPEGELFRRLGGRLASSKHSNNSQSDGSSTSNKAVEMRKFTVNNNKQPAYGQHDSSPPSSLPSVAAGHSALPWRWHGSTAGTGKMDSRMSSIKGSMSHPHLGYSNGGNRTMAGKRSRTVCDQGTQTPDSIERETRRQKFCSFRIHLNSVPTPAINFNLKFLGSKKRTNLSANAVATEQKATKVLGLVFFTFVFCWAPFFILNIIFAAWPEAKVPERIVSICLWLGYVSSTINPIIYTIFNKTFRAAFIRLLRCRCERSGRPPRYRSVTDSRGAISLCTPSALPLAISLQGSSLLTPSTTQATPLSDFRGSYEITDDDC

Turning to `CN(C)CCCC1(c2ccc(F)cc2)OCc2cc(C#N)ccc21` (stereo not shown) [citalopram], in the assay on An. gambiae, the “Flight after microinjection into the thorax” value was “severe flight defects and a prolonged time for flight recovery”.

As for `CNCCC(Oc1ccc(C(F)(F)F)cc1)c1ccccc1` (stereo not shown) [fluoxetine, fluoxetine hydrochloride], in the assay with Ae. aegypti [1], the “Successfully blood-fed, normalized to the untreated group” value is “approximately 80%”. Further, the Effect on locomotion entry in the assay on D. melanogaster is on record as “repress locomotion”. Also, the figures for the “Distance average in flight cylinder” value in the assay with Ae. aegypti [2] (2.5 mM) and in the assay on Ae. aegypti [2] (4 mM) were 41.61 cm and 81.63 cm, respectively.

The IC50 is the point on the concentration scale where inhibition reaches its midpoint. Take `CS(=O)(=O)O.CSc1ccc2c(c1)C(N1CCN(C)CC1)Cc1ccccc1S2` (stereo not shown) [methiothepin, methiothepin mesylate salt]: the Blood meal size in the assay on Ae. aegypti [1] amounted to 2.25 µL. Moreover, the “Successfully blood-fed, normalized to the untreated group” value with Ae. aegypti [1] is on record as 50.7%. Also, the “Ability to inhibit activity in a dose-response manner” value is reported as “exhibited the ability to inhibit activity in a dose-response manner” on AGAP002229 and “exhibited the ability to inhibit activity in a dose-response manner” at AGAP002232 (antagonist test, receptor not given, taken as both 5-HT2 cell lines). In the assay on D. melanogaster larvae, the Effect on feeding entry is “anorectic agent”. For the same molecule, in assay [3], the “Inhibition of D1-like dopamine receptors” value was “ability to inhibit D1-like dopamine receptors”. For the same molecule, the “Inhibitory effect on octopamine receptor” value is given as “marked inhibition” in assay [4] (10^−4 M) and “did not elicit a similar result” in [4] (all other concentrations of the range 10^−10 to 10^−4 M). Also, the Successful flights was determined as 92% with Ae. aegypti [2] (1 mM microinjected (69 nL)), 84% in the assay on Ae. aegypti [2] (1.5 mM microinjected (69 nL)) and 61% in the assay with Ae. aegypti [2] (2.5 mM microinjected (69 nL)). Further, the “Average distance dropped before landing on flight cylinder” value in the assay on Ae. aegypti [2] (1 mM) is on record as 22.77 cm; in the assay on Ae. aegypti [2] (1.5 mM), 33.04 cm; in the assay on Ae. aegypti [2] (2.5 mM), 49.27 cm. For the same molecule, in the assay on Ae. aegypti [2] (1.5 mM, Fig. 5c), the “Average distance in flight cylinder” value is 41.38 cm. The IC50 on AGAP002232 (read-out: IC50 (calcium response to 5-HT), AGAP002232 HEK-293 cells) stood at 560 pM. The “Lowest concentration exhibiting inhibitory effects” value at AGAP002232 (receptor not given) is given as 10^−16 M.
